The target in data set [1] is T1, cloned rat KOR (Rattus norvegicus, UniProt P34975).
T1 construct: expressed in transfected cells
The settings on record: read-out: KOR Ki ± SEM; cited from earlier work.

The test system of data set [2] is KOR. The settings on record: following a single injection; ref [4]; cited from earlier work. The text has this:
Recently, antagonists of the kappa opioid receptor (KOR) have attracted significant attention due to their potential use in treating various central nervous system (CNS) disorders, especially mood disorders and substance abuse. […] Consequently, there has been a growing interest in KOR antagonists, including peptide KOR antagonists, with m ...

The target of data set [3] is T1, cloned rat KOR. The experiment in a line: Radioligand binding, competitive inhibition of [^3H]diprenorphine, KOR.
Another data set addresses T2, cloned rat MOR (Rattus norvegicus, UniProt P33535).
T2 construct: expressed in transfected cells
The data set is described as follows: Radioligand binding, competitive inhibition of [^3H]DAMGO, MOR.

The test system of data set [4] is KOR. The data set is described as follows: Dynorphin-stimulated [^35S]GTPγS assay, KOR antagonism (Schild analysis). The class given is biochemical. The settings on record: for agonist activity / type of antagonism at KOR: [^35S]GTPγS binding assay.
The test system of data set [5] is KOR. The settings on record: [^35S]GTPγS binding assay; known comparator; cited from earlier work. For orientation: GTPγS is a poorly hydrolysed GTP analogue; its binding reports G protein activation.
For the next data set, the target named is ẟ opioid receptor (DOR). The settings on record: ref [6]; cited from earlier work.
The subject of data set [6] is KOR (antagonism of U50,488 antinociception). The settings on record: mouse 55 °C warm-water tail withdrawal; i.c.v.; ref [7]; cited from earlier work.
For data set [7], the system named is stress-induced reinstatement of cocaine-seeking behavior. The settings on record: mouse conditioned place preference; i.c.v.; ref [7]; cited from earlier work.
For another data set, the system named is proteases. The settings on record: linear peptide; general statement; cited from earlier work.
Data set [8] relates to KOR. The settings on record: ref [6]; cited from earlier work.
Data set [9] addresses KOR. Details: method as in PMID 34162205. The settings on record: ref [23]; cited from earlier work.
In data set [10] the test system is KOR. Also on record: method as in PMID 34162205. The settings on record: ref [23]; read-out: KOR agonist potency EC50; cited from earlier work.

Like-named read-outs stand apart in the source and are kept apart here. Positions of bridges follow the written chain, without caps; N, C: chain ends. Non-standard residues stand in square brackets, D forms with d. Residues, ends and D or L forms follow the SMILES beside them. No end group written: not given here. *: point of attachment. X1 = CC(=O)N[C@@H](Cc1ccccc1)C(=O)N[C@H]1Cc2ccc(cc2)OC/C=C/COc2ccc(cc2)C[C@@H](C(=O)*)NC1=O; AllylGly = C=CC[C@H](N)C(=O)O

We go through five molecules from PMC11243530 (Molecules, 2024).

Consider “3: monocyclic arodyn analog, RCM cyclization between Tyr(All) residues in positions 2 and 3 (FYYRLRRARPK) [Peptide 3]”, for which the Ki – broadly, a measure of affinity in units of concentration, obtained from inhibition or displacement – in the data set with cloned rat KOR [1] is 55.4 ± 4.1 nM.

Regarding `CC(C)[C@@H](CN1CC[C@@](C)(c2cccc(O)c2)[C@@H](C)C1)NC(=O)[C@H]1Cc2ccc(O)cc2CN1` [JDTic], in the data set on KOR [2], the duration of action entry is “exhibited prolonged effects, with their action extending from days to weeks”.

Regarding `CC(=O)N[C@@H](Cc1ccccc1)C(=O)N[C@H]1Cc2ccc(cc2)OC/C=C/COc2ccc(cc2)C[C@@H](C(=O)N[C@@H](CCCNC(=N)N)C(=O)N[C@H]2CC=CC[C@@H](C(=O)N[C@@H](CCCNC(=N)N)C(=O)N3CCC[C@H]3C(=O)N[C@@H](CCCCN)C(N)=O)NC(=O)[C@H](CCCNC(=N)N)NC(=O)[C@H](CCCNC(=N)N)NC2=O)NC1=O` [Peptide 4] (X1-R[AllylGly]RR[AllylGly]RPK-NH2; staple 2-5), the Ki on cloned rat KOR [3] amounted to 26.4 ± 5.9 nM; at cloned rat MOR it was 2570 ± 500 nM. The “KOR selectivity over MOR” value at cloned rat KOR [3] (MOR Ki / KOR Ki) was 97 fold. At cloned rat KOR [3] (MOR Ki / KOR Ki), the “Ki Ratio (MOR/KOR)” value is 97. Moreover, the “agonist activity / type of antagonism at KOR” value in the data set with KOR [4] is “did not exhibit appreciable agonist activity and functioned as a potent competitive KOR antagonist”; in the data set with KOR [4] (listed as bicyclic analog), “exhibits potent KOR antagonism”. The antagonist dissociation constant (Kb) (as a rule, the affinity of an antagonist, worked out from how it opposes an agonist) in the data set on KOR [4] (dynorphin A-(1–13)-NH2-stimulated [^35S]GTPγS binding, KOR membranes, peptidase inhibitors present, four concentrations 1–1000 nM of 4, Schild analysis, mean values from 4 independent experiments) amounted to 0.9 nM. For the same molecule, the “KOR affinity and KOR antagonism relative to monocyclic analogs” value in the data set on KOR [4] (dynorphin-stimulated [^35S]GTPγS assay and KOR binding) is given as “comparable to monocyclic analogs”.

Consider “Ac[Phe^1,2,3,Arg^4,D-Ala^8]dynorphin A-(1–11)-NH2 [arodyn]”, for which the “agonist activity / type of antagonism at KOR” value in the data set on KOR [5] was “did not exhibit appreciable agonist activity and functioned as a potent competitive KOR antagonist”. In addition, the Ki on ẟ opioid receptor (DOR) was more than 5 µM. In [6], the “antagonism of antinociception produced by U50,488” value is “antagonized antinociception produced by the KOR-selective agonist U50,488”. Besides, the “reinstatement of cocaine-seeking behavior induced by stress” value in data set [7] is “prevented the reinstatement of cocaine-seeking behavior induced by stress”. In the data set with proteases, the susceptibility to proteolysis entry is “susceptible to rapid breakdown by proteases”. Also, the “KOR antagonism in vitro” value in the data set with KOR [8] is “potent KOR antagonist in vitro”.

With “dynorphin A-(1–13)-NH2: KOR agonist reference peptide (YGGFLRRIRPKLK-NH2; UniProt P01213 207-219, looked up, fragment)”, the Ki on KOR [9] was 0.3 nM. The EC50 (usually the concentration that produces a half-maximal response) in the data set with KOR [10] is 2.8 nM.
